Type in all cases: biochemical
Test [1] has as its target T1, MtbCoaBC (Mycobacterium tuberculosis, UniProt P9WNZ1). The test can be described thus: High-throughput end-point pyrophosphate quantification assay (Biomol Green).
The target of test [2] is T1, MtbCoaBC. Nature of the test: CMP quantification assay (UPLC), second half of CoaB reaction, variable L-cysteine. Conditions: for CMP formation rate, uM CMP/uM protein.s-1: MtbCoaBC 32nM, replicates R1-R3.
Test [3] deals with T1, MtbCoaBC. The test can be described thus: Competition assays, first half of CoaB reaction (EnzChek, variable CTP or PPA). The settings on record: for mode of inhibition: in words.
Test [4] addresses T1, MtbCoaBC. Nature of the test: biochemical. The settings on record: for Activity %: relative to average CT; for Activity % / Inhibition % / Activity: replicates R1-R3; for Activity: slope of absorbance at 360 nm vs time (s); for inhibition, replicates / reaction rate (slope of absorbance at 360 nm over time), replicates: IC50 MtbCoaBC AcCoA.
The mark [5] stands for this setting: AcCoA concentration 512 (log 2.70927).
[6] abbreviates: AcCoA concentration 1024 (log 3.0103).

The structures appear in SMILES notation. Values joined by “and” are separate entries in the source; they are usually repeats but may differ in a detail not shown here. Equal entries are not always repeated.

T1 sequence (P9WNZ1 whole entry): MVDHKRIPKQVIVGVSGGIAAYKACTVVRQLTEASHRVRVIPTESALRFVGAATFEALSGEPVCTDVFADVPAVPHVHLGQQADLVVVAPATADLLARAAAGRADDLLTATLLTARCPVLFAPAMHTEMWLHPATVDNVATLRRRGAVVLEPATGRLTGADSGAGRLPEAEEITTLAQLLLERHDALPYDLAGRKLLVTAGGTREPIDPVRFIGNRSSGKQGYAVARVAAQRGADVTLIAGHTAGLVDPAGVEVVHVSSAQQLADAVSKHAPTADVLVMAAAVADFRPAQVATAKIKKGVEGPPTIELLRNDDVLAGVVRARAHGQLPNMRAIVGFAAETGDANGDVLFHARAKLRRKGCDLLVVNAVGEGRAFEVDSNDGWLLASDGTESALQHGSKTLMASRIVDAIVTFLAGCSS

With `O=c1cc(-c2ccccc2)oc2cc(O)c(O)c(O)c12` [2a], half-maximal inhibition on MtbCoaBC [1] (IC50) required 3.1 µM.
As to `CC(=O)SCCNC(=O)CCNC(=O)[C@H](O)C(C)(C)COP(=O)(O)OP(=O)(O)OC[C@H]1O[C@@H](n2cnc3c(N)ncnc32)[C@H](O)[C@@H]1OP(=O)(O)O` [AcCoA, acetyl-CoA], the “CMP formation rate, uM CMP/uM protein.s-1” value on MtbCoaBC [2] (32uM AcCoA, 31.25 uM cysteine) was 0.1004 uM CMP/uM protein.s-1 and 0.1195 uM CMP/uM protein.s-1 and 0.1103 uM CMP/uM protein.s-1; on MtbCoaBC [2] (32uM AcCoA, 62.5 uM cysteine), 0.1434 uM CMP/uM protein.s-1 and 0.1547 uM CMP/uM protein.s-1 and 0.1394 uM CMP/uM protein.s-1; at MtbCoaBC [2] (32uM AcCoA, 250 uM cysteine), 0.2114 uM CMP/uM protein.s-1 and 0.2235 uM CMP/uM protein.s-1 and 0.2345 uM CMP/uM protein.s-1; at MtbCoaBC [2] (32uM AcCoA, 500 uM cysteine) it was 0.2276 uM CMP/uM protein.s-1 and 0.2314 uM CMP/uM protein.s-1 and 0.2458 uM CMP/uM protein.s-1; at MtbCoaBC [2] (64uM AcCoA, 31.25 uM cysteine), 0.08802 uM CMP/uM protein.s-1 and 0.06801 uM CMP/uM protein.s-1 and 0.07425 uM CMP/uM protein.s-1; at MtbCoaBC [2] (64uM AcCoA, 62.5 uM cysteine), 0.1006 uM CMP/uM protein.s-1 and 0.1253 uM CMP/uM protein.s-1 and 0.1155 uM CMP/uM protein.s-1. In addition, the “CMP formation rate, uM CMP/uM protein.s-1” value was 0.1479 uM CMP/uM protein.s-1 and 0.156 uM CMP/uM protein.s-1 and 0.1565 uM CMP/uM protein.s-1 at MtbCoaBC [2] (64uM AcCoA, 250 uM cysteine); 0.1756 uM CMP/uM protein.s-1 and 0.1564 uM CMP/uM protein.s-1 and 0.1555 uM CMP/uM protein.s-1 on MtbCoaBC [2] (64uM AcCoA, 500 uM cysteine); 0.04605 uM CMP/uM protein.s-1 and 0.05632 uM CMP/uM protein.s-1 and 0.0514 uM CMP/uM protein.s-1 at MtbCoaBC [2] (128uM AcCoA, 31.25 uM cysteine); 0.06616 uM CMP/uM protein.s-1 and 0.09648 uM CMP/uM protein.s-1 and 0.09325 uM CMP/uM protein.s-1 on MtbCoaBC [2] (128uM AcCoA, 62.5 uM cysteine); 0.09625 uM CMP/uM protein.s-1 and 0.1011 uM CMP/uM protein.s-1 and 0.1018 uM CMP/uM protein.s-1 at MtbCoaBC [2] (128uM AcCoA, 250 uM cysteine); 0.1011 uM CMP/uM protein.s-1 and 0.1154 uM CMP/uM protein.s-1 and 0.1123 uM CMP/uM protein.s-1 on MtbCoaBC [2] (128uM AcCoA, 500 uM cysteine). Besides, the mode of inhibition result is on record as “non-competitive inhibition” on MtbCoaBC [2] (relative to L-cysteine, in words); “competitive” at MtbCoaBC [3] (relative to CTP); “competitive” at MtbCoaBC [3] (relative to PPA). The results for the Ki at MtbCoaBC [2] (variable substrate L-cysteine), on MtbCoaBC [3] (variable substrate CTP) and at MtbCoaBC [3] (variable substrate PPA) were 62.1 ± 2 µM, 22.5 ± 1.7 µM and 22.4 ± 1.4 µM, respectively. In addition, the Inibition type entry on MtbCoaBC [3] (variable substrate CTP) and at MtbCoaBC [3] (variable substrate PPA) was “C (C competitive inhibition)” each time. The Activity % on MtbCoaBC [4] (8 uM AcCoA) was 102.2% and 99.12% and 97.26%; at MtbCoaBC [4] (16 uM AcCoA), 97.8% and 95.95%; at MtbCoaBC [4] (32 uM AcCoA), 83.56% and 84.79% and 80.02%; at MtbCoaBC [4] (64 uM AcCoA), 72.03% and 75.67% and 69.98%; on MtbCoaBC [4] (128 uM AcCoA) it was 46.95% and 48.75% and 44.16%; on MtbCoaBC [4] (256 uM AcCoA), 25.68% and 25.48% and 26.76%. For the same compound, the Inhibition % on MtbCoaBC [4] (8 uM AcCoA) is 0.88% and 2.74% and -2.21%; on MtbCoaBC [4] (16 uM AcCoA) it was 2.20% and 4.05%; at MtbCoaBC [4] (32 uM AcCoA), 15.21% and 19.98% and 16.44%; at MtbCoaBC [4] (64 uM AcCoA), 24.33% and 30.02% and 27.97%; on MtbCoaBC [4] (128 uM AcCoA), 51.25% and 55.84% and 53.05%; on MtbCoaBC [4] (256 uM AcCoA) it was 74.52% and 73.24% and 74.32%. Also, the Activity is 0.0001687 and 0.0001636 and 0.0001606 at MtbCoaBC [4] (8 uM AcCoA); 0.0001621 and 0.0001615 and 0.0001584 at MtbCoaBC [4] (16 uM AcCoA); 0.0001379 and 0.00014 and 0.0001321 at MtbCoaBC [4] (32 uM AcCoA); 0.0001189 and 0.0001249 and 0.0001155 on MtbCoaBC [4] (64 uM AcCoA); 0.000077520 and 0.000080489 and 0.000072900 at MtbCoaBC [4] (128 uM AcCoA); 0.000042403 and 0.000042072 and 0.000044186 on MtbCoaBC [4] (256 uM AcCoA). Besides, the 50% inhibitory concentration (IC50) (commonly the concentration that gives 50% inhibition) on MtbCoaBC [4] (CoaB activity, […] CTP, […] PPA, 500 µM L-cysteine, average of three independent experiments ± SD, read-out: IC50 EnzChek MtbCoaBC) amounted to 121 ± 9 µM. In addition, the “inhibition, replicates” value was 81.65 and 87.30 and 84.02 against MtbCoaBC [4] (setting [5]); 99.03 and 98.19 and 97.42 against MtbCoaBC [4] (setting [6]). Further, the “reaction rate (slope of absorbance at 360 nm over time), replicates” value at MtbCoaBC [4] (setting [5]) was 0.000026380 and 0.000030299 and 0.000020964; on MtbCoaBC [4] (setting [6]), 0.000004262 and 0.000001602 and 0.000002982.
For `O=C(c1ccccc1)c1ccc(O)c(O)c1O` [compound 1a], the IC50 on MtbCoaBC [1] (MtbCoaB activity, end-point, 2 µM CTP, 40 µM L-cysteine, 30 µM PPA, read-out: IC50 biomol green assay) worked out at 9 µM.
